Where a name gives a salt, the structure may show the parent alone.
Molecular target: human protease activated receptor 1 (PAR-1) (Homo sapiens (Human), UniProt P25116)
Assay: Cellular, functional in vitro test (aequorin luminescence, calcium release in recombinant HEK293 PAR-1 test cell)
Format: cell-based
Conditions: HEK293-derived PAR-1 test cell line expressing aequorin; PAR-1 agonist added at its EC50, 5 min after test substance
Source text: 1.a) Cellular, Functional In Vitro Test
A recombinant cell line is used to identify […] of the human protease activated receptor 1 (PAR-1) and to quantify the activity of the substances described herein. The cell is originally derived from a human embryonal kidney cell (HEK293; ATCC: American Type Culture Collection, Manassas, Va. 20108, USA). The test cell line constitutively expresses a modified form of the calcium-sensitive photoprotein aequorin which, after reconstitution with the cofactor coelenterazine, emits light when the free calcium concentration in the inner mitochondrial compartment is increased (Rizzuto R, Simpson A W, Brini M, Pozzan T.; Nature 1992, 358, 325-327). Additionally, the cell stably expresses the endogenous human PAR-1 receptor and the endogenous purinergic receptor P2Y2. The resulting PAR-1 test cell responds to stimulation of the endogenous PAR-1 or P2Y2 receptor with an intracellular release of calcium ions, which can be quantified through resulting aequorin luminescence with a suitable luminometer (Milligan G, Marshall F, Rees S, Trends in Pharmacological Sciences 1996, 17, 235-237).
For the testing of the substance specificity, the effect thereof after activation of the endogenous PAR-1 receptor is compared with the effect after activation of the endogenous purinergic P2Y2 receptor which utilizes the same intracellular signal path.
Two days (48 hours) before the assay, the cells are plated out in culture medium (DMEM F12, supplemented with 10% FCS, 2 mM glutamine, 10 mM HEPES, 1.4 mM pyruvate, 0.1 mg/ml gentamycin, 0.15% Na bicarbonate; BioWhittaker Cat. #BE04-687Q; B-4800 Verviers, Belgium) in 384-well microtitre plates and kept in a cell incubator (96% humidity, 5% v/v CO2, 37° C.). On the day of the test, the culture medium is replaced by a tyrode solution (in mM: 140 sodium chloride, 5 potassium chloride, 1 magnesium chloride, 2 calcium chloride, 20 glucose, 20 HEPES), which additionally contains the cofactor coelenterazine (25 μM) and glutathione (4 mM), and the microtitre plate is then incubated for a further 3-4 hours. The test substances are then pipetted onto the microtitre plate, and 5 minutes after the transfer of the test substances into the wells of the microtitre plate the plate is transferred into the luminometer, a PAR-1 agonist concentration which corresponds to the EC50 is added and the resulting light signal is immediately measured in the luminometer. To distinguish an antagonist substance action from a toxic action, the endogenous purinergic receptor is immediately subsequently activated with agonist (ATP, final concentration 10 μM) and the resulting light signal is measured.

human protease activated receptor 1 (PAR-1), sequence (P25116 22-425): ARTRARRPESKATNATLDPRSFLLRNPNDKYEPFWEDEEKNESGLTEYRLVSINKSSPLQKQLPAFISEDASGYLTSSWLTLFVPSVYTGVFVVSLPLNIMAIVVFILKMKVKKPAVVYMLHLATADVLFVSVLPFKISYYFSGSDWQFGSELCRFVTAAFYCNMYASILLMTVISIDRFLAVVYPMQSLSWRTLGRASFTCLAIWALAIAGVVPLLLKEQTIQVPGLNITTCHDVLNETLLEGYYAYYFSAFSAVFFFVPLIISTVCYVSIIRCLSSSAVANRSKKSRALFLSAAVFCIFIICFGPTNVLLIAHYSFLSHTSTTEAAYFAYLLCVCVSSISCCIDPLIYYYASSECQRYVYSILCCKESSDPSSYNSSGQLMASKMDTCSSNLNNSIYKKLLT

SMILES | IC50
CCc1ccc(C2CC(C(=O)Nc3ccccc3)CN(C(=O)C(C)(C)CF)C2)cc1 (racemic) [Example 7, 5-(4-Ethylphenyl)-1-(3-fluoro-2,2-dimethylpropanoyl)-N-phenylpiperidine-3-carboxamide] | 29 nM
CCc1ccc(C2CC(C(=O)Nc3ccccc3)CN(C(=O)CCOC)C2)cc1 (racemic) [Example 8, 5-(4-Ethylphenyl)-1-(3-methoxypropanoyl)-N-phenylpiperidine-3-carboxamide] | 109 nM
CCc1ccc(C2CC(C(=O)Nc3ccccc3)CN(C(=O)C3(CC)COC3)C2)cc1 (racemic) [Example 18] | 483 nM
CCc1ccc(C2CC(C(=O)Nc3ccccc3)CN(C(=O)c3scnc3C)C2)cc1 (racemic) [Example 36] | 98.2 nM
CCc1ccc(C2CC(NC(=O)c3ccc(-c4cccc(C(F)(F)F)c4)cn3)CN(C(=O)C3CCCC3)C2)cc1 (racemic) [Example 83, N-[1-(Cyclopentylcarbonyl)-5-(4-ethylphenyl)piperidin-3-yl]-5-[3-(trifluoromethyl)phenyl]pyridine-2-carboxamide] | 19.7 nM
CCc1ccc(C2CC(NC(=O)C(C)(C)C)CN(C(=O)C3CCCC3)C2)cc1 (racemic) [Example 90, N-[1-(Cyclopentylcarbonyl)-5-(4-ethylphenyl)piperidin-3-yl]-2,2-dimethylpropanamide] | 359 nM
CCc1ccc(C2CC(NC(=O)Nc3ccccc3)CN(C(=O)N3CCCC3)C2)cc1 (racemic) [Example 91, N-[5-(4-Ethylphenyl)-1-(pyrrolidin-1-ylcarbonyl)piperidin-3-yl]-3-phenylurea] | 17.4 nM
CCc1ccc(C2CC(NC(=O)N(C)c3ccccc3)CN(C(=O)C3CCCC3)C2)cc1 (racemic) [Example 95, 3-[1-(Cyclopentylcarbonyl)-5-(4-ethylphenyl)piperidin-3-yl]-1-methyl-1-phenylurea] | 237 nM
CCc1ccc(C2CC(NC(=O)OC)CN(C(=O)N3CCOCC3)C2)cc1 (racemic) [Example 102, Methyl [5-(4-ethylphenyl)-1-(morpholin-4-ylcarbonyl)piperidin-3-yl]carbamate] | 165 nM
CCc1ccc(C2CC(NS(=O)(=O)Cc3ccccc3)CN(C(=O)C3CCCC3)C2)cc1 (racemic) [Example 104, N-[1-(Cyclopentylcarbonyl)-5-(4-ethylphenyl)piperidin-3-yl]-1-phenylmethanesulphonamide] | 248 nM
Cc1ccc(C2CC(NC(=O)c3ccccc3)CN(C(=O)C3(N)CCC3)C2)cc1C (racemic) [Example 119, N-{1-[(1-Aminocyclobutyl)carbonyl]-5-(3,4-dimethylphenyl)piperidin-3-yl}benzenecarboxamide hydrochloride] | 15.7 nM
O=C(NC1CC(c2ccc(C(F)(F)F)cc2)CN(C(=O)N2CCC(O)CC2)C1)c1ccccc1 (racemic) [Example 129, N-{1-[(4-Hydroxypiperidin-1-yl)carbonyl]-5-[4-(trifluoromethyl)phenyl]piperidin-3-yl}benzenecarboxamide] | 33.6 nM
C[C@@H]1CC[C@@H](C)N1C(=O)N1CC(NC(=O)c2ccccc2)CC(c2ccc(C(F)(F)F)cc2)C1 (mixture of isomers) [Example 133, N-(1-{[(2R,5R)-2,5-Dimethylpyrrolidin-1-yl]carbonyl}-5-[4-(trifluoromethyl)phenyl]piperidin-3-yl)benzenecarboxamide] | 14.6 nM
O=C(NC1CC(c2ccc(C(F)(F)F)cc2)CN(C(=O)N2CCS(=O)(=O)CC2)C1)c1ccccc1 (racemic) [Example 134, N-{1-[(1,1-Dioxidothiomorpholin-4-yl)carbonyl]-5-[4-(trifluoromethyl)phenyl]piperidin-3-yl}-benzenecarboxamide] | 15.4 nM
O=C1CN(C(=O)N2CC(NC(=O)c3ccccc3)CC(c3ccc(C(F)(F)F)cc3)C2)CCN1 (racemic) [Example 141, N-{1-[(3-Oxopiperazin-1-yl)carbonyl]-5-[4-(trifluoromethyl)phenyl]piperidin-3-yl}benzenecarboxamide] | 53.7 nM
Cc1cccc(C(=O)NC2CC(c3ccc(C(F)(F)F)cc3)CN(C(=O)N3CCOCC3)C2)n1 (racemic) [Example 162] | 25 nM
O=C(NC1CC(c2ccc(C(F)(F)F)cc2)CN(C(=O)N2CCC(O)CC2)C1)C1CCCC1 (racemic) [Example 170, N-{1-[(4-Hydroxypiperidin-1-yl)carbonyl]-5-[4-(trifluoromethyl)phenyl]piperidin-3-yl}cyclopentanecarboxamide] | 21.3 nM
O=C(NC1CC(c2ccc(OC(F)(F)F)cc2)CN(C(=O)c2ccncc2)C1)c1ccccc1 (single isomer, unassigned) [Example 115, N-{1-(Pyridin-4-ylcarbonyl)-5-[4-(trifluoromethoxy)phenyl]piperidin-3-yl}benzenecarboxamide] | 11.1 nM
O=C(NC1CC(c2ccc(C(F)(F)F)cc2)CN(C(=O)N2CCOCC2)C1)c1ccccc1 (single isomer, unassigned) [Example 128, N-{1-(Morpholin-4-ylcarbonyl)-5-[4-(trifluoromethyl)phenyl]piperidin-3-yl}benzenecarboxamide] | 17 nM
O=C(NC1CC(c2ccc(C(F)(F)F)cc2)CN(C(=O)N2CCC(O)CC2)C1)C1CCCC1 (single isomer, unassigned) [Example 177, N-{1-[(4-Hydroxypiperidin-1-yl)carbonyl]-5-[4-(trifluoromethyl)phenyl]piperidin-3-yl}cyclopentanecarboxamide] | 81 nM
N#CC1CCN(C(=O)N2CC(NC(=O)C3CCCC3)CC(c3ccc(C(F)(F)F)cc3)C2)CC1 (single isomer, unassigned) [Example 178, N-{1-[(4-Cyanopiperidin-1-yl)carbonyl]-5-[4-(trifluoromethyl)phenyl]piperidin-3-yl}cyclopentanecarboxamide] | 63 nM
